{
  "source": "patent US10631539B2",
  "about": "“Fungicidal compositions” (SYNGENTA PARTICIPATIONS AG, priority 2015, dated 2020)",
  "data": [
    {"system": "Blumeria graminis f. Sp. Tritici (Erysiphe qraminis f. Sp. Tritici)", "test": "Blumeria graminis f. sp. tritici / wheat / leaf disc preventative (powdery mildew on wheat)", "format": "in vivo", "conditions": "foliar, wheat leaf disks cv. Kanzler, inoculated 1 day after application, compared to untreated control, read-out: disease control", "experimental": "Blumeria graminis f. Sp. Tritici (Erysiphe qraminis f. Sp. Tritici)/Wheat/Leaf Disc Preventative (Powdery Mildew on Wheat)\nWheat leaf segments cv. Kanzler were placed on agar in a multiwell plate (24-well format) and sprayed with the formulated test compound or mixture composition diluted in water. The leaf disks were inoculated by shaking powdery mildew infected plants above the test plates 1 day after application. The inoculated leaf disks were incubated at 20° C. and 60% rh under a light regime of 24 h darkness followed by 12 h light/12 h darkness in a climate chamber and the activity of a compound or mixture composition was assessed as percent disease control compared to untreated when an appropriate level of disease damage appears on untreated check leaf segments (6-8 days after application).", "units": {"pest or weed control at 200 ppm": "%"}, "values": [
      {"compound": "CCCOC[C@H](C)Oc1nc(C)c(/N=C/N(C)CC)cc1Br", "note": "[Compound 67.002, N′-[5-bromo-2-methyl-6-[(1S)-1-methyl-2-propoxy-ethoxy]-3-pyridyl]-N-ethyl-N-methyl-formamidine]", "pest or weed control at 200 ppm": "≥ 80"}
    ]},
    {"system": "Puccinia recondita f. sp. tritici", "test": "Puccinia recondita f. sp. tritici / wheat / leaf disc preventative (brown rust)", "format": "in vivo", "conditions": "foliar, wheat leaf disks cv. Kanzler, inoculated 1 day after application, compared to untreated control, read-out: disease control", "experimental": "Puccinia recondita f. sp. tritici/wheat/leaf disc preventative (brown rust)\nWheat leaf segments cv. Kanzler were placed on agar in multiwell plates (24-well format) and sprayed with the formulated test compound or mixture composition diluted in water. The leaf disks were inoculated with a spore suspension of the fungus 1 day after application. The inoculated leaf segments were incubated at 19° C. and 75% rh under a light regime of 12 h light/12 h darkness in a climate cabinet and the activity of a compound or mixture composition was assessed as percent disease control compared to untreated when an appropriate level of disease damage appears in untreated check leaf segments (7-9 days after application).", "units": {"pest or weed control at 200 ppm": "%"}, "values": [
      {"compound": "CCCOC[C@H](C)Oc1nc(C)c(/N=C/N(C)CC)cc1Br", "note": "[Compound 67.002, N′-[5-bromo-2-methyl-6-[(1S)-1-methyl-2-propoxy-ethoxy]-3-pyridyl]-N-ethyl-N-methyl-formamidine]", "pest or weed control at 200 ppm": "≥ 80"}
    ]},
    {"system": "Puccinia recondita f. sp. tritici", "test": "Puccinia recondita f. sp. tritici / wheat / leaf disc curative (brown rust)", "format": "in vivo", "conditions": "foliar, 24 h, wheat leaf disks cv. Kanzler, applied 1 day after inoculation (curative), compared to untreated control, read-out: disease control", "experimental": "Puccinia recondita f. Sp. Tritici/Wheat/Leaf Disc Curative (Brown Rust)\nWheat leaf segments cv. Kanzler are placed on agar in multiwell plates (24-well format). The leaf segments are inoculated with a spore suspension of the fungus. Plates were stored in darkness at 19° C. and 75% rh. The formulated test compound or mixture composition diluted in water was applied 1 day after inoculation. The leaf segments were incubated at 19° C. and 75% rh under a light regime of 12 h light/12 h darkness in a climate cabinet and the activity of a compound or mixture composition was assessed as percent disease control compared to untreated when an appropriate level of disease damage appears in untreated check leaf segments (6-8 days after application).", "units": {"pest or weed control at 200 ppm": "%"}, "values": [
      {"compound": "CCCOC[C@H](C)Oc1nc(C)c(/N=C/N(C)CC)cc1Br", "note": "[Compound 67.002, N′-[5-bromo-2-methyl-6-[(1S)-1-methyl-2-propoxy-ethoxy]-3-pyridyl]-N-ethyl-N-methyl-formamidine]", "pest or weed control at 200 ppm": "≥ 80"},
      {"compound": "CCCOC[C@@H](C)Oc1nc(C)c(/N=C/N(C)CC)cc1Br", "note": "[Compound 67.003, N′-[5-bromo-2-methyl-6-[(1R)-1-methyl-2-propoxy-ethoxy]-3-pyridyl]-N-ethyl-N-methyl-formamidine]", "pest or weed control at 200 ppm": "≥ 80"},
      {"compound": "CCCOCC(C)Oc1nc(C)c(/N=C/N(C)CC)cc1C#N", "note": "(stereo not shown) [Compound 67.007, N′-[5-cyano-2-methyl-6-(1-methyl-2-propoxy-ethoxy)-3-pyridyl]-N-ethyl-N-methyl-formamidine]", "pest or weed control at 200 ppm": "≥ 80"},
      {"compound": "CCCOCC(C)Oc1nc(C)c(/N=C/N(C)CC)cc1C(F)F", "note": "(stereo not shown) [Compound 67.009, N′-[5-(difluoromethyl)-2-methyl-6-(1-methyl-2-propoxy-ethoxy)-3-pyridyl]-N-ethyl-N-methyl-formamidine]", "pest or weed control at 200 ppm": "≥ 80"},
      {"compound": "CCCOCC(C)Oc1nc(C)c(/N=C/N(C)CC)cc1OC(F)F", "note": "(stereo not shown) [Compound 67.010]", "pest or weed control at 200 ppm": "≥ 80"},
      {"compound": "CCCOCC(C)Oc1nc(C)c(/N=C/N(C)CC)cc1C", "note": "(stereo not shown) [Compound 67.011, N′-[2,5-dimethyl-6-(1-methyl-2-propoxy-ethoxy)-3-pyridyl]-N-ethyl-N-methyl-formamidine]", "pest or weed control at 200 ppm": "≥ 80"},
      {"compound": "CCCOCC(C)Oc1ccc(/N=C/N(C)CC)c(C)n1", "note": "(stereo not shown) [Compound 67.012]", "pest or weed control at 200 ppm": "≥ 80"},
      {"compound": "CCCOCC(C)Oc1nc(C)c(/N=C/N(C)CC)cc1Br", "note": "(stereo not shown) [Compound 67.013, N′-[5-bromo-2-methyl-6-(1-methyl-2-propoxy-ethoxy)-3-pyridyl]-N-ethyl-N-methyl-formamidine]", "pest or weed control at 200 ppm": "≥ 80"},
      {"compound": "C=CCOCC(C)Oc1nc(C)c(/N=C/N(C)CC)cc1Cl", "note": "(stereo not shown) [Compound 67.014, N′-[6-(2-allyloxy-1-methyl-ethoxy)-5-chloro-2-methyl-3-pyridyl]-N-ethyl-N-methyl-formamidine]", "pest or weed control at 200 ppm": "≥ 80"},
      {"compound": "CCCOCC(C)Oc1nc(C)c(/N=C/N(C)CC)cc1Cl", "note": "(stereo not shown) [Compound 67.015, N′-[5-chloro-2-methyl-6-(1-methyl-2-propoxy-ethoxy)-3-pyridyl]-N-ethyl-N-methyl-formamidine]", "pest or weed control at 200 ppm": "≥ 80"},
      {"compound": "C=CCOCC(COC)Oc1nc(C)c(/N=C/N(C)CC)cc1Br", "note": "(stereo not shown) [Compound 67.016]", "pest or weed control at 200 ppm": "≥ 80"},
      {"compound": "C=CCOCC(C)Oc1nc(C)c(/N=C/N(C)CC)cc1C#N", "note": "(stereo not shown) [Compound 67.017]", "pest or weed control at 200 ppm": "≥ 80"},
      {"compound": "CCCOCC(C)Oc1nc(C)c(/N=C/N(C)C(C)C)cc1Br", "note": "(stereo not shown) [Compound 67.018, N′-[5-bromo-2-methyl-6-(1-methyl-2-propoxy-ethoxy)-3-pyridyl]-N-isopropyl-N-methyl-formamidine]", "pest or weed control at 200 ppm": "≥ 80"},
      {"compound": "CCN(C)/C=N/c1cc(C#N)c(OC(C)COc2cccc(C(F)(F)F)c2)nc1C", "note": "(stereo not shown) [Compound 67.020]", "pest or weed control at 200 ppm": "≥ 80"},
      {"compound": "CCN(C)/C=N/c1cc(C#N)c(OC(C)COc2ccc(Cl)cc2)nc1C", "note": "(stereo not shown) [Compound 67.021]", "pest or weed control at 200 ppm": "≥ 80"},
      {"compound": "CCN(C)/C=N/c1cc(C#N)c(OC(C)COc2ccccc2)nc1C", "note": "(stereo not shown) [Compound 67.022]", "pest or weed control at 200 ppm": "≥ 80"},
      {"compound": "CCN(C)/C=N/c1cc(Cl)c(OC(C)COc2cccc(C(F)(F)F)c2)nc1C", "note": "(stereo not shown) [Compound 67.023]", "pest or weed control at 200 ppm": "≥ 80"},
      {"compound": "CCN(C)/C=N/c1cc(Cl)c(OC(C)COc2ccc(Cl)cc2)nc1C", "note": "(stereo not shown) [Compound 67.024]", "pest or weed control at 200 ppm": "≥ 80"},
      {"compound": "CCN(C)/C=N/c1cc(Cl)c(OC(C)COc2ccccc2)nc1C", "note": "(stereo not shown) [Compound 67.025]", "pest or weed control at 200 ppm": "≥ 80"},
      {"compound": "CCN(C)/C=N/c1cc(Br)c(OC(C)COc2ccc(Cl)cc2)nc1C", "note": "(stereo not shown) [Compound 67.026]", "pest or weed control at 200 ppm": "≥ 80"},
      {"compound": "CCN(C)/C=N/c1cc(Br)c(OC(C)COc2cccc(C(F)(F)F)c2)nc1C", "note": "(stereo not shown) [Compound 67.027]", "pest or weed control at 200 ppm": "≥ 80"},
      {"compound": "CCN(C)/C=N/c1cc(Br)c(OC(C)COc2ccccc2)nc1C", "note": "(stereo not shown) [Compound 67.028]", "pest or weed control at 200 ppm": "≥ 80"}
    ]},
    {"system": "Phakopsora pachyrhizi (triazole tolerant soybean rust strain)", "test": "Phakopsora pachyrhizi on soybean, preventive treatment", "format": "in vivo", "conditions": "foliar, 264 h, 1 day preventive, leaf discs evaluated 11 days after application, compared to untreated control, read-out: disease control", "experimental": "Phakopsora pachyrhizi on Soybean, Preventive Treatment\nThe compound or mixture composition activity was tested under 1 day preventive conditions. Soybean plants with a fully enfolded first trifoliate leaf were sprayed with a track sprayer and 50 l/ha spray volume with the test compounds or mixture composition, either solo or in tankmix as shown in the table below.\n1 day after application leaf discs were cut from the first trifoliate leaf and placed in multiwell plates on water-agar. 5 leaf discs per treatment where infested with spores of a triazole tolerant soybean rust strain. The multiwell plates where sealed and placed in an incubator 48 h in darkness and 12 h light/dark cycle afterwards. Rust infestation on leaf discs was evaluated visually 11 days after application and average activity calculated in relation to disease severity on untreated check leaf discs.", "units": {"pest or weed control at 200 ppm": "%"}, "values": [
      {"compound": "CCCOC[C@H](C)Oc1nc(C)c(/N=C/N(C)CC)cc1Br", "note": "[Compound 67.002, N′-[5-bromo-2-methyl-6-[(1S)-1-methyl-2-propoxy-ethoxy]-3-pyridyl]-N-ethyl-N-methyl-formamidine]", "pest or weed control at 200 ppm": "≥ 80"}
    ]}
  ]
}
